From patent US20230263757A1, “DISINFECTING WIPE KIT FOR CENTRAL VENOUS ACCESS DEVICES” (SterileCare Inc., priority 2022, published 2023)
Where a name gives a salt, the structure may show the parent alone. Read-outs that look alike come from different tables or passages of the source.

How the values were obtained:
[1] = test system: Stenotrophomonas maltophilia ON17; experiment: MBC/MFC determination; format: cell-based; details: alone
Procedure: (§1) An assay was made using a minimum inhibitory concentration (MIC) and minimum bactericidal concentration (MBC) and minimum fungicidal concentration (MFC) determination. The MIC was determined by the micro broth dilution method in 96-well plates. Serial two-fold dilutions of tetrasodium EDTA (from 2% to 0.015%), ethanol (from 50% to 0.1%) and chlorhexidine HCl (from 100 μg/mL to 0.025 μg/mL) were prepared in MH broth with a final volume of 90 μL per well. A 10 μL containing 1×10^5 bacterial cells or 2×10^3 fungal cells were added to each well. The inoculated plates were covered with a lid, sealed with Parafilm, and incubated for 24 h at 37° C. with slight rocking on a tilting platform shaker. After incubation, the optical density at 600 nm (OD 600) of the cultures in each well was measured using an xMark™ Microplate Absorbance Spectrophotometer (Bio-Rad). […] MBCs and MFCs were determined by transferring 100 μL from each well with no apparent growth onto appropriate agar plates, followed by incubation for 24 h at 37° C.

[2] = test system: Pseudomonas aeruginosa SK1; experiment: MBC/MFC determination; format: cell-based; details: alone
Procedure: as §1

[3] = test system: Proteus mirabilis ON153; experiment: MBC/MFC determination; format: cell-based; details: alone
Procedure: as §1

[4] = test system: Serratia marcescens SK2; experiment: MBC/MFC determination; format: cell-based; details: alone
Procedure: as §1

[5] = test system: MRSA ON184; experiment: Checkerboard, FMCI; format: cell-based, S. aureus; details: for microbicidal concentration in combination: EDTA + ethanol
Procedure: as §1
(§2) A fourth composition and solution included tetrasodium EDTA with ethanol or chlorhexidine HCl. This fourth composition and solution were created using checkerboard titration methods using micro broth dilution in 96-well microtiter plates. The concentrations of antimicrobials used were based on previously determined MIC values. Briefly, 200 μL, of two-fold dilutions of tetrasodium EDTA and ethanol or chlorhexidine HCl were prepared in MH or MH II broth with standardized cell suspension. […] Microtiter plates were incubated at 37° C. for 24 h, and the results were analyzed. Each test was performed in duplicate and included a growth control without adding any antimicrobials.

[6] = test system: S. epidermidis SK9; experiment: MIC, micro broth dilution; format: cell-based, Staphylococcus epidermidis; details: alone
Procedure: as §1

[7] = test system: MRSA ON184; experiment: Checkerboard titration, FICI; format: cell-based, S. aureus; details: for concentration in combination: EDTA + ethanol
Procedure: as §2

[8] = test system: MRSA ON184; experiment: MBC/MFC determination; format: cell-based, S. aureus; details: alone
Procedure: as §1

[9] = test system: MRSA ON184; experiment: MBEC assay, 48-h biofilm, 24 h exposure; format: cell-based, S. aureus
Procedure: (§3) A biofilm cultivation cell composition was provided. This fifth composition was created using an MBEC Assay® biofilm inoculator, consisting of a polystyrene lid with 96 downward-protruding pegs and a corresponding base used to grow biofilms. A standardized inoculum was diluted in an appropriate biofilm growth medium to achieve a viable cell count of 1.5×10^6 CFU/mL of bacterial cells or 5×10^5 CFU/mL of fungal cells. Then, 150 μL of this inoculum was transferred into each appropriate well, and the peg lids were inserted into the microtiter plates. The plates were sealed with Parafilm and were incubated at optimum temperature for 48 h with slight rocking for bacteria and shaking at 200 rpm for fungal strains. After incubation, the peg lid was removed from the base and rinsed twice with sterile phosphate-buffered saline (PBS) for 2 min to remove loosely attached non-sessile cells. Before the antimicrobial challenge, the pegs in column 1 (n=8) were considered the biofilm growth control; these pegs were removed from the lids, placed into 200 μL of recovery medium, and analyzed for starting biofilm cell numbers as described below. The rinsed pegs were placed into new 96-well plates containing two-fold dilutions of antimicrobials such as tetrasodium EDTA (4%-0.0125%), ethanol (100%-0.2%), and chlorhexidine HCl (100 μg/mL-0.4 μg/mL) in 200 μL of suitable biofilm growth medium per well and incubated at optimum temperature for 24 h. After the antimicrobial challenge, the pegs were rinsed twice with sterile PBS for 2 min and placed into a new 96-well plate containing 200 μL of recovery medium. The recovery plates were sealed with Parafilm, and biofilm cells were dislodged from the pegs by sonication for 30 min with a Branson 3510 bath sonicator. The biofilm cells in the recovery medium were serially diluted, and a drop dilution assay was performed to enumerate the viable cells. MBEC values were determined as the minimum concentration of antimicrobials that yielded a viable cell count at or lower than the 125 CFU/mL detection limit.

[10] = test system: E. coli SK2; experiment: MBC/MFC determination; format: cell-based, Escherichia coli; details: alone
Procedure: as §1

[11] = test system: C. albicans ON47; experiment: MBEC assay, 48-h biofilm, 24 h exposure; format: cell-based, Candida albicans
Procedure: as §3

[12] = test system: C. albicans ON47; experiment: Checkerboard, FMCI; format: cell-based, Candida albicans; details: for microbicidal concentration in combination: EDTA + ethanol
Procedure: as §1, §2

[13] = test system: MRSA ON184; experiment: MIC, micro broth dilution; format: cell-based, S. aureus; details: alone
Procedure: as §1

[14] = test system: E. coli SK2; experiment: Checkerboard, FMCI; format: cell-based, Escherichia coli; details: for microbicidal concentration in combination: EDTA + ethanol
Procedure: as §1, §2

[15] = test system: MRSA ON184; experiment: FBEC index, checkerboard on biofilms; format: cell-based, S. aureus; details: for biofilm eradication concentration in combination (FBEC): EDTA + ethanol
Procedure: In step (4), microtiter plates are incubated at 37° C. for 24 h. then (6), after incubation, the bacterial and fungal cells were dislodged from the pegs into the recovery medium described above.
Three 10-μL aliquots, for a total of 30 μL from each well of recovery medium, were spotted on MH agar plates and incubated for 24 h at 37° C. […] The FBEC determination is a modification of the FICI.

[16] = test system: C. albicans ON47; experiment: Checkerboard titration, FICI; format: cell-based, Candida albicans; details: for concentration in combination: EDTA + ethanol
Procedure: as §2

[17] = test system: C. albicans ON47; experiment: MBC/MFC determination; format: cell-based, Candida albicans; details: alone
Procedure: as §1

[18] = test system: Stenotrophomonas maltophilia ON17; experiment: Checkerboard titration, FICI; format: cell-based; details: for concentration in combination: EDTA + ethanol
Procedure: as §2

[19] = test system: Escherichia coli ON29; experiment: Checkerboard titration, FICI; format: cell-based; details: for concentration in combination: EDTA + ethanol
Procedure: as §2

[20] = test system: Pseudomonas aeruginosa SK1; experiment: Checkerboard titration, FICI; format: cell-based; details: for concentration in combination: EDTA + ethanol
Procedure: as §2

[21] = test system: Staphylococcus epidermidis ON170; experiment: Checkerboard titration, FICI; format: cell-based; details: for concentration in combination: EDTA + ethanol
Procedure: as §2

[22] = test system: Proteus mirabilis ON153; experiment: Checkerboard titration, FICI; format: cell-based; details: for concentration in combination: EDTA + ethanol
Procedure: as §2

[23] = test system: Candida albicans SK4b; experiment: Checkerboard titration, FICI; format: cell-based; details: for concentration in combination: EDTA + ethanol
Procedure: as §2

[24] = test system: Staphylococcus aureus ON89; experiment: Checkerboard titration, FICI; format: cell-based; details: for concentration in combination: EDTA + ethanol
Procedure: as §2

[25] = test system: Serratia marcescens SK2; experiment: Checkerboard titration, FICI; format: cell-based; details: for concentration in combination: EDTA + ethanol
Procedure: as §2

SMILES: [H]/N=C(\N/C(=N/[H])NCCCCCCNC(=N)NC(=N)Nc1ccc(Cl)cc1)Nc1ccc(Cl)cc1 [Chlorhexidine HCl, 1,6-bis(4′-chlorophenylbiguanide) hexane]
- MBC/MFC [1]: 3.125 µg/mL
- MBC/MFC [2]: 3.125 µg/mL
- MBC/MFC [3]: 50 µg/mL
- MBC/MFC [4]: 25 µg/mL
- Chlorhexidine HCl microbicidal concentration in combination ([5]; EDTA + chlorhexidine HCl): 0.4 µg/mL
- MIC ([6]; Staphylococcus epidermidis, read-out: MIC): 0.1 µg/mL
- Chlorhexidine HCl concentration in combination ([7]; EDTA + chlorhexidine HCl): 0.2 µg/mL
- MBC/MFC [8]: 1.6 µg/mL
- MBEC [9]: 50 µg/mL
- MBC/MFC [10]: 0.8 µg/mL
- MBEC [11]: 25 µg/mL
- Chlorhexidine HCl microbicidal concentration in combination ([12]; EDTA + chlorhexidine HCl): 1.6 µg/mL
- MIC ([13]; Staphylococcus aureus, read-out: MIC): 0.2 µg/mL
- Chlorhexidine HCl microbicidal concentration in combination ([14]; EDTA + chlorhexidine HCl): 0.2 µg/mL
- Chlorhexidine HCl biofilm eradication concentration in combination (FBEC) ([15]; EDTA + chlorhexidine HCl): 6.25 µg/mL
- Chlorhexidine HCl concentration in combination ([16]; EDTA + chlorhexidine HCl): 0.8 µg/mL
- MBC/MFC [17]: 3.125 µg/mL
- Chlorhexidine HCl concentration in combination ([18]; EDTA + chlorhexidine HCl): 0.2 µg/mL
- Chlorhexidine HCl concentration in combination ([19]; EDTA + chlorhexidine HCl): 0.2 µg/mL
- Chlorhexidine HCl concentration in combination ([20]; EDTA + chlorhexidine HCl): 0.8 µg/mL
- Chlorhexidine HCl concentration in combination ([21]; EDTA + chlorhexidine HCl): 0.05 µg/mL
- Chlorhexidine HCl concentration in combination ([22]; EDTA + chlorhexidine HCl): 0.8 µg/mL
- Chlorhexidine HCl concentration in combination ([23]; EDTA + chlorhexidine HCl): 0.8 µg/mL
- Chlorhexidine HCl concentration in combination ([24]; EDTA + chlorhexidine HCl): 0.1 µg/mL
- Chlorhexidine HCl concentration in combination ([25]; EDTA + chlorhexidine HCl): 1.5 µg/mL

SMILES: O=C([O-])CN(CCN(CC(=O)[O-])CC(=O)[O-])CC(=O)[O-].[Na+].[Na+].[Na+].[Na+] [EDTA, tetrasodium EDTA]
- MBC/MFC [1]: 1 % w/v
- MBC/MFC [2]: 1 % w/v
- MBC/MFC [3]: 2 % w/v
- MBC/MFC [4]: 2 % w/v
- EDTA microbicidal concentration in combination ([5]; EDTA + chlorhexidine HCl): 0.125 % w/v
- microbicidal concentration in combination [5]: 0.031 % w/v
- MIC [6]: 0.063 % w/v
- EDTA concentration in combination ([7]; EDTA + chlorhexidine HCl): 0.008 % w/v
- concentration in combination [7]: 0.015 % w/v
- MBC/MFC [8]: 2 % w/v
- MBEC [9]: 2 % w/v
- MBC/MFC [10]: 0.5 % w/v
- MBEC [11]: 1 % w/v
- EDTA microbicidal concentration in combination ([12]; EDTA + chlorhexidine HCl): 0.031 % w/v
- microbicidal concentration in combination [12]: 0.25 % w/v
- MIC [13]: 0.063 % w/v
- EDTA microbicidal concentration in combination ([14]; EDTA + chlorhexidine HCl): 0.015 % w/v
- microbicidal concentration in combination [14]: 0.25 % w/v
- EDTA biofilm eradication concentration in combination (FBEC) ([15]; EDTA + chlorhexidine HCl): 0.031 % w/v
- biofilm eradication concentration in combination (FBEC) [15]: 0.063 % w/v
- EDTA concentration in combination ([16]; EDTA + chlorhexidine HCl): 0.125 % w/v
- concentration in combination [16]: 0.25 % w/v
- MBC/MFC [17]: 1 % w/v
- EDTA concentration in combination ([18]; EDTA + chlorhexidine HCl): 0.015 % w/v
- concentration in combination [18]: 0.031 % w/v
- EDTA concentration in combination ([19]; EDTA + chlorhexidine HCl): 0.008 % w/v
- concentration in combination [19]: 0.25 % w/v
- EDTA concentration in combination ([20]; EDTA + chlorhexidine HCl): 0.5 % w/v
- concentration in combination [20]: 0.031 % w/v
- EDTA concentration in combination ([21]; EDTA + chlorhexidine HCl): 0.063 % w/v
- concentration in combination [21]: 0.015 % w/v
- EDTA concentration in combination ([22]; EDTA + chlorhexidine HCl): 0.063 % w/v
- concentration in combination [22]: 0.5 % w/v
- EDTA concentration in combination ([23]; EDTA + chlorhexidine HCl): 0.063 % w/v
- concentration in combination [23]: 0.25 % w/v
- EDTA concentration in combination ([24]; EDTA + chlorhexidine HCl): 0.008 % w/v
- concentration in combination [24]: 0.015 % w/v
- EDTA concentration in combination ([25]; EDTA + chlorhexidine HCl): 0.063 % w/v
- concentration in combination [25]: 0.5 % w/v

SMILES: CCO [Ethanol, ethanol]
- MBC/MFC [1]: 6.25 % w/v
- MBC/MFC [2]: 12.5 % w/v
- MBC/MFC [3]: 12.5 % w/v
- MBC/MFC [4]: 12.5 % w/v
- microbicidal concentration in combination [5]: 3.125 % w/v
- MIC [6]: 6.25 % w/v
- concentration in combination [7]: 0.4 % w/v
- MBC/MFC [8]: 25 % w/v
- MBEC [9]: 12.5 % w/v
- MBC/MFC [10]: 25 % w/v
- MBEC [11]: 12.5 % w/v
- microbicidal concentration in combination [12]: 3.125 % w/v
- MIC [13]: 6.25 % w/v
- microbicidal concentration in combination [14]: 6.25 % w/v
- biofilm eradication concentration in combination (FBEC) [15]: 1.6 % w/v
- concentration in combination [16]: 0.4 % w/v
- MBC/MFC [17]: 6.25 % w/v
- concentration in combination [18]: 0.4 % w/v
- concentration in combination [19]: 3.125 % w/v
- concentration in combination [20]: 3.125 % w/v
- concentration in combination [21]: 0.4 % w/v
- concentration in combination [22]: 1.6 % w/v
- concentration in combination [23]: 1.6 % w/v
- concentration in combination [24]: 0.4 % w/v
- concentration in combination [25]: 3.125 % w/v
